Data as given in patent US20210261569A1, “FUSED HETEROCYCLIC DERIVATIVES HAVING SELECTIVE BACE1 INHIBITORY ACTIVITY” (Shionogi & Co., Ltd., priority 2018, published 2021).

Assays:
[1] = Metabolic stability test; type: in vitro ADME; conditions: human liver microsomes 0.5 mg protein/mL, NADPH, 37° C.
Description: Using a commercially available pooled human liver microsomes, a compound of the present invention was reacted for a constant time, a remaining rate was calculated by comparing a reacted sample and an unreacted sample, thereby, a degree of metabolism in liver was assessed.
A reaction was performed (oxidative reaction) at 37° C. for 0 minute or 30 minutes in the presence of 1 mmol/L NADPH in 0.2 mL of a buffer (50 mmol/L Tris-HCl pH 7.4, 150 mmol/L potassium chloride, 10 mmol/L magnesium chloride) containing 0.5 mg protein/mL of human liver microsomes. After the reaction, 50 μL of the reaction solution was added to 100 μL of a methanol/acetonitrile=1/1 (v/v), mixed and centrifuged at 3000 rpm for 15 minutes. The compound of the present invention in the supernatant was quantified by LC/MS/MS or solid phase extraction (SPE)/MS, and a remaining amount of the compound of the present invention after the reaction was calculated, letting a compound amount at 0 minute reaction time to be 100%.

[2] = target: T1, human ether-a-go-go related gene (hERG) channel (Homo sapiens, UniProt Q12809); assay: hERG test (whole cell patch clamp, QPatch); type: cell-based; conditions: CHO cells expressing hERG, tail peak current
T1 construct: expressed in transfected cells; host or cells: CHO cells
Description: For the purpose of assessing risk of an electrocardiogram QT interval prolongation, effects on delayed rectifier K+ current (IKr), which plays an important role in the ventricular repolarization process of the compound of the present invention, was studied using CHO cells expressing human ether-a-go-go related gene (hERG) channel.
A cell was retained at a membrane potential of −80 mV by whole cell patch clamp method using an automated patch clamp system (QPatch; Sophion Bioscience A/S). After application of leak potential at −50 mV, IKr induced by depolarization pulse stimulation at +20 mV for 2 seconds and, further, repolarization pulse stimulation at −50 mV for 2 seconds was recorded.
After the generated current was stabilized, extracellular solution (NaCl: 145 mmol/L, KCl: 4 mmol/L, CaCl2:2 mmol/L MgCl2:1 mmol/L, 1 mmol/L, HEPES (4-(2-hydroxyethyl)-1-piperazineethanesulfonic acid: 10 mmol/L, glucose:10 mmol/L pH=7.4) in which the compound of the present invention have been dissolved at an objective concentration was applied to the cell under the room temperature condition for 10 minutes. From the recording IKr, an absolute value of the tail peak current was measured based on the current value at the resting membrane potential using an analysis software (QPatch assay software; Sophion Bioscience A/S). Further, the % inhibition relative to the tail peak current before application of the compound of the present invention was calculated, and compared with the vehicle-applied group (0.1% dimethyl sulfoxide solution) to assess influence of the compound of the present invention on IKr.

[3] = target: T2, P-gp (MDR1 expressing LLC-PK1 cells) (Homo sapiens, UniProt P08183); assay: P-gp substrate test; type: in vitro ADME; conditions: MDR1 expressing LLC-PK1 cells vs parent LLC-PK1 cells
T2 construct: host or cells: LLC-PK1 (porcine kidney) cells
Description: 1. MDR1 expressing LLC-PK1 cells and its parent cells were routinely cultured in Medium A (Medium 199 (Invitrogen) supplemented with 10% FBS (Invitrogen), gentamycin (0.05 mg/mL, Invitrogen) and hygromycin B (100 μg/mL, Invitrogen)) at 37° C. under 5% CO2/95% 02 gasses. For the transport experiments, these cells were seeded on Transwell (Registered trademark) insert (96-well, pore size: 0.4 μm, Coaster) at a density of 1.4×10^4 cells/insert and added Medium B (Medium 199 supplemented with 10% FBS and gentamycin at 0.05 mg/mL) to the feeder tray. These cells were incubated in a CO2 incubator (5% CO2/95% 02 gasses, 37° C.) and replace apical and basolateral culture medium every 48-72 hr after seeding. These cells were used between 4 and 6 days after seeding. 2. The medium in the culture insert seeded with MDR1 expressing cells or parent cells were removed by aspiration and rinsed by HBSS. The apical side (140 μL) or basolateral side (175 μL) was replaced with transport buffer containing reference substrates and the present invention and then an aliquot (50 μL) of transport buffer in the donor side was collected to estimate initial concentration of reference substrate and the present invention. After incubation for designed time at 37° C., an aliquot (50 μL) of transport buffer in the donor and receiver side were collected. Assay was performed by duplicate or triplicate. 3. Reference substrate and the present invention in the aliquot was quantified by LC/MS/MS.
Permeated amounts across monolayers of MDR1 expressing and parent cells were determined, and permeation coefficients (Pe) were calculated using Excel 2003 from the following equitation:
Pe (cm/sec)=Permeated amount (pmol)/area of cell membrane (cm^2)/initial concentration (nM)/incubation time (sec) Where, permeated amount was calculated from permeation concentration (nM, concentration of the receiver side) of the substance after incubation for the defined time (sec) multiplied by volume. (mL) and area of cell membrane was used 0.1433 (cm2). The efflux ratio was calculated using the following equation:
Efflux Ratio=Basolateral-to-Apical Pe/Apical-to-Basolateral Pe
The net flux was calculated using the following equation:
Net flux=Efflux Ratio in MDR1 expressing cells/Efflux Ratio in parent cells

T2 sequence (P08183 whole entry): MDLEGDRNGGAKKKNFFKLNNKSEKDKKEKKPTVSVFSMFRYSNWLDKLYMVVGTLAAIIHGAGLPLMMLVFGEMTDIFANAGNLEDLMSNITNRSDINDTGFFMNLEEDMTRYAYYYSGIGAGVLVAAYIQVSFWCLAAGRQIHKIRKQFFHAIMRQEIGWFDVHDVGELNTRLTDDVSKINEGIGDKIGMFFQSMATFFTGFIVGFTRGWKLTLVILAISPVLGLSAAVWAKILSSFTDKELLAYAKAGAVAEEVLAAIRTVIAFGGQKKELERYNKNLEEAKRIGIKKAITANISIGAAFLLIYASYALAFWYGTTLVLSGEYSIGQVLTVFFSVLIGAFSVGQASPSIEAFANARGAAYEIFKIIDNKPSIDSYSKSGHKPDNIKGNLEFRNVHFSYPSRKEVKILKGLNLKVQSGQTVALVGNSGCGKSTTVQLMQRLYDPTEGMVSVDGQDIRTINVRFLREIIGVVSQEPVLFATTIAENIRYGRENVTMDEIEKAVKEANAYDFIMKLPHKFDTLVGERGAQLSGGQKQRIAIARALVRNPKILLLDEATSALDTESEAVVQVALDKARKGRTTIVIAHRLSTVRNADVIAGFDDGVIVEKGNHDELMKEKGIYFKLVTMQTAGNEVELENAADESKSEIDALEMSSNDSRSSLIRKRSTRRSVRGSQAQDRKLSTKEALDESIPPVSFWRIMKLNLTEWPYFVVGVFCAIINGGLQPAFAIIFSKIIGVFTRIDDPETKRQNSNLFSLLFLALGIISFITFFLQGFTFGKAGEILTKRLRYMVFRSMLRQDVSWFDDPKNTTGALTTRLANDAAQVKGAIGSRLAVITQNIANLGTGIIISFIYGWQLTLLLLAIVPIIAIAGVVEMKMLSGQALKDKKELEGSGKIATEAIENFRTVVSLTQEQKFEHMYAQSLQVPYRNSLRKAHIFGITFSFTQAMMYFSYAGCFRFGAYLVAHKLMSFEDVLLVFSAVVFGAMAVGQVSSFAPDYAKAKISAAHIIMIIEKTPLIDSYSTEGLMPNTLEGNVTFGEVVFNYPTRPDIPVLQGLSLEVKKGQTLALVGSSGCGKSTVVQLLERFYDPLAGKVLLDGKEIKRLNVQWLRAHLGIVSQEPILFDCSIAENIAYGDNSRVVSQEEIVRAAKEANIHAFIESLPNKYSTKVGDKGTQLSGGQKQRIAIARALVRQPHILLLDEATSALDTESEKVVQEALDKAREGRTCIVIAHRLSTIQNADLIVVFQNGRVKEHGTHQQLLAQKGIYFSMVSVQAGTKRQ
T1 sequence (Q12809 whole entry): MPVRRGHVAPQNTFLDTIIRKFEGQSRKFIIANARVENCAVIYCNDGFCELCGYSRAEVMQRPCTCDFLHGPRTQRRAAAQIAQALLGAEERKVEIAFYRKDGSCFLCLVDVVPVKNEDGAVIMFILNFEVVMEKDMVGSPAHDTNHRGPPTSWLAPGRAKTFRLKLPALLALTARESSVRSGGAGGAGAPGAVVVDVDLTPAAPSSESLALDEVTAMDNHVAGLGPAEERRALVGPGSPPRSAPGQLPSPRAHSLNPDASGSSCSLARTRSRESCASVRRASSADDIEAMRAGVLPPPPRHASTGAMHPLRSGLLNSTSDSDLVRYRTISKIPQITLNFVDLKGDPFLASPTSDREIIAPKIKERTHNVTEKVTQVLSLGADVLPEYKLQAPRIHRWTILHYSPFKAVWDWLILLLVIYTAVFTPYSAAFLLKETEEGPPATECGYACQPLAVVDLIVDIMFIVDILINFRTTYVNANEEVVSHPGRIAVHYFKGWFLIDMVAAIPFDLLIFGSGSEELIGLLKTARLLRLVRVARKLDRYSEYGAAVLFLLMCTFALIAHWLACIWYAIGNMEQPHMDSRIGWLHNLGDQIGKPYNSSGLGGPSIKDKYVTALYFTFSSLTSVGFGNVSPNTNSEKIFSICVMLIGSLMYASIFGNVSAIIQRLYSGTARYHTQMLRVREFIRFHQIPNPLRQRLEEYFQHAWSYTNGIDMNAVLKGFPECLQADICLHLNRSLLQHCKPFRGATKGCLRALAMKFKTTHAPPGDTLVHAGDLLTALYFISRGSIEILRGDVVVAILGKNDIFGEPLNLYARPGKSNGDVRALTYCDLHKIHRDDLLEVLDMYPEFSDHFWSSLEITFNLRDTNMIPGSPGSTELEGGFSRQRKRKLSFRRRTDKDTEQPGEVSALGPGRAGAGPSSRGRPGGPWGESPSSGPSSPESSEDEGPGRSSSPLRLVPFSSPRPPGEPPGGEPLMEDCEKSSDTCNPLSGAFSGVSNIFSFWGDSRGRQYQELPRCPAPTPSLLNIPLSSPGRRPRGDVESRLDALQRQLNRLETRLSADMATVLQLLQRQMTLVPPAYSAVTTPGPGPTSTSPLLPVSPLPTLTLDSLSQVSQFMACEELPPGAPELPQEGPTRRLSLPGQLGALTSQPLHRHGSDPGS

Remaining rate (%) at 30 min [1] [%] | P-gp ER ratio [3] | SMILES | hERG inhibition (%) at 3 μM [2] [%]
65 | 3.3 | CC1(C)OC[C@H]2[C@@H]1OC(N)=N[C@]2(CF)c1cc(NC(=O)c2cnc(OCF)cn2)ccc1F [Compound I-096] | 19.4
91 | 5.3 | NC1=N[C@](CF)(c2cc(NC(=O)c3cnc(OCF)cn3)ccc2F)[C@H]2CO[C@@H](CF)[C@H]2O1 [Compound I-112] | 5
102 | 2.1 | NC1=N[C@](CF)(c2cc(NC(=O)c3cnc(OCF)cn3)ccc2F)[C@H]2[C@H](CF)OC[C@H]2O1 [Compound I-114] | 12.4
93 | 3 | NC1=N[C@](CF)(c2cc(NC(=O)c3cnc(OCF)cn3)ccc2F)[C@H]2[C@H](CCF)OC[C@H]2O1 [Compound I-115] | 9.9
